According to patent US20120309728A1, “NEW STEROID INHIBITORS OF PGP FOR USE FOR INHIBITING MULTIDRUG RESISTANCE” (priority 2009, published 2012):
pIC50: −log10 of the molar value.

Assays:
[1] = system: H295R cells; experiment: Cytotoxicity assay using [^3H]thymidine incorporation in surviving cells, with doxorubicin plus steroid modulator; type: cell-based, human; details: comment on Table 2, both value columns
Description: Doxorubicine (DOXO) at 10^−6 M was added shortly thereafter to each well. […] Finally the precipitate was solubilized by addition of 300 μL of a solution of sodium deoxycholate (4% in NaOH 0.5 M) (O. Joly-Pharaboz et al., J Steroid Biochem. Mol. Biol. 73 (2000) 237-249). Radioactivity was measured (Tri-Carb 1900 CA, Packard) after addition of liquid scintillation cocktail (Perkin Elmer, Courtaboeuf, France). […] At least three different experiments were performed for each cell type.

[2] = system: K562/R7 cells; experiment: Cytotoxicity assay using MTT reagent, with doxorubicin plus steroid modulator; type: cell-based, human; details: doxorubicin 10^−6M + steroid modulator 10^−6M, 72 h
Description: Doxorubicin at 10^−6 M was then added to each well. After incubation for 72 h, 20 μL of MTT reagent (5 mg/mL in PBS buffer) were added to each well and the plate was further incubated for 4 h at 37° C., allowing viable cells to change the yellow MTT into dark-blue formazan crystals. Supernatants were carefully discarded and 100 μL of isopropanol containing 10% HCL 1M were added to dissolve the formazan crystals. Absorbance in each well was determined at 570 nm using a microplate reader (MultisKan EX, Thermo Electron). […] At least three different experiments were performed. Results were expressed as the percentage of surviving cells in each well compared to untreated cells.

[3] = system: resistant R7 cells; experiment: Reversion of chemoresistance to doxorubicin by steroid modulators (modulation of IC50 for doxorubicin); type: cell-based, human; details: in vitro, cyclosporine A in the same conditions
Description: FIGS. 3 and 4 represent the effects of compounds of the invention (steroid modulators) on chemosensitization of resistant R7 cells to doxorubicin (DOXO), evaluated by [^3H]thymidine incorporation. Resistant R7 cells were incubated for 24 hours with increasing concentrations of doxorubicinin the absence (∘) or in the presence of said steroid modulators. As a control, the sensitive K562 cells were incubated with the same concentrations of doxorubicin ([…]).
Sensitive parental K562 cells were also treated with the same increasing concentrations of DOXO (from 10^−8 to 10^−4 M) in the absence of steroids, as a control.

[4] = system: H295R cells xenograft; experiment: In vivo efficiency in SCID mice xenografted with H295R cells
Source text: (§1) FIGS. 7 and 8 represent the tumour volume of mice treated with vehicle ([…]), doxorubicin (∘), compound (33) alone (▾), and compound (33) with doxorubicin (Δ). The tumor volume is indicated as a function of days. FIG. 7 concerns mice xenografted with H295R cells and FIG. 8 concerns mice xenografted with R7 cells (the arrow indicates the beginning of treatment of mice).
(§2) For each xenograft, four groups of five mice developing a tumour in both flanks were employed. Group 1 received vehicle alone, group 2 received DOXO (1.5 mg/kg/mouse+vehicle), group 3 received (33) derivative (10 mg/kg/mouse solubilised with vehicle) and group 4 received DOXO+derivative.

[5] = system: R7 cells xenograft; experiment: In vivo efficiency in SCID mice xenografted with R7 cells
Source text: as §1, §2

[6] = system: R7 cells; experiment: Intracellular accumulation of daunorubicin measured by flow cytometry; type: cell-based, human; details: daunorubicin 10 μM, compound 10 μM, 1 h at 37° C.
Description: The accumulation of daunorubicin in the presence of steroid modulators according to the invention, i.e. compounds having formula (I), was measured by flow cytometry using a reported procedure (G. Comte et al, J. Med. Chem., 44: 763-768, 2001). K562 or R7 cells ([…]) were incubated for 1 h at 37° C. with 1 mL RPMI 1640 medium containing daunorubicin at 10 μM, in the presence or absence of compounds of the invention (10 μM). The cells were then washed twice with ice-cold PBS and kept on ice until analysis by flow cytometry on a FACS-II (Becton-Dickinson Corp., Mountain View, Calif.). Assays were performed in duplicate, in at least three separate experiments.

[7] = system: H295R cells; experiment: cells
Description: (§3) After treatment, the number of surviving cells was evaluated by the incorporation of [^3H]thymidine as described above.

[8] = system: K562/R7 cells; experiment: Determination of IC50 for cytotoxics ([^3H]thymidine incorporation)
Description: as §3

[9] = DOXO 1.5 mg/kg/mouse + derivative 10 mg/kg/mouse (group 4) versus groups 1, 2 and 3
[10] = DOXO + derivative (group 4), 40 days of treatment

CC(=O)C1CCC2C3C([C@H](OC4CCCCO4)C[C@]12C)[C@@]1(C)CCC(=O)C[C@H]1C[C@H]3OC(=O)c1ccccc1 (stereo partly drawn) [Compound 33, 7α-Benzoyloxy-11α-O-[2′(R)]tetrahydropyranyl-oxy(5β)pregnane-3,20-dione]
activity to increase the cytotoxicity of doxorubicin (in words) [1]: activity similar to cyclosporine A | Surviving cells R7 cells (% untreated cells) [2]: 1.5 ± 0.9 % untreated cells | potency relative to cyclosporine A in decreasing IC50 for doxorubicin [3]: 10 fold | development of tumour [4, 9]: delay in the development of tumour | survival time ([4]; DOXO + derivative (group 4)): longer survival time | tumour volume [4, 10]: remains low and stable | development of tumour [5, 9]: delay in the development of tumour | survival time ([5]; DOXO + derivative (group 4)): longer survival time | tumour volume [5, 10]: remains low and stable

CC(=O)[C@@]1(OC2CCCCO2)CCC2C3CC[C@@H]4CC(=O)CC[C@]4(C)C3[C@H](OC3CCCCO3)C[C@@]21C (stereo partly drawn) [Compound 51, 11α,17α-Bis-O-[2′(S),2′(R)]tetrahydropyranyloxy(5β)pregnane-3,20-dione]
Daunorubicin accumulation [6]: 68.02 ± 15.6 % of the accumulation measured in the presence of cyclosporine A | potency relative to cyclosporine A in decreasing IC50 for doxorubicin [3]: 10 fold

COc1cccc2c1C(=O)c1c(O)c3c(c(O)c1C2=O)C[C@@](O)(C(=O)CO)C[C@@H]3O[C@H]1C[C@H](N)[C@H](O)[C@H](C)O1 [doxorubicin]
pIC50 ([7]; Homo sapiens, NCI-H295R, 24 h, read-out: IC50 of cytotoxic drug (concentration inhibiting cell growth by 50%)): 4.69 | pIC50 ([8]; Homo sapiens, K562/R7, 24 h, read-out: IC50 of cytotoxic drug (concentration inhibiting cell growth by 50%)): 4.20

O=C1c2c(O)ccc(O)c2C(=O)c2c(NCCNCCO)ccc(NCCNCCO)c21 [mitoxantrone]
resistance of the cells to the cytotoxic drug (in words) [7]: resistant | resistance of the cells to the cytotoxic drug (in words) [8]: resistant

CC[C@]1(O)C[C@@H]2CN(CCc3c([nH]c4ccccc34)[C@@](C(=O)OC)(c3cc4c(cc3OC)N(C)[C@H]3[C@@](O)(C(=O)OC)[C@H](OC(C)=O)[C@]5(CC)C=CCN6CC[C@]43[C@@H]65)C2)C1 [vinblastine]
resistance of the cells to the cytotoxic drug (in words) [8]: resistant

CCC1=C[C@@H]2CN(C1)Cc1c([nH]c3ccccc13)[C@@](C(=O)OC)(c1cc3c(cc1OC)N(C)[C@H]1[C@@](O)(C(=O)OC)[C@H](OC(C)=O)[C@]4(CC)C=CCN5CC[C@]31[C@@H]54)C2 [vinorelbine]
resistance of the cells to the cytotoxic drug (in words) [7]: resistant
